# Where a name gives a salt, the structure may show the parent alone. Read-outs that look alike come from different tables or passages of the source.
# Assays:
# MAPKAPK2 = MAPKAPK2 (Homo sapiens, UniProt P49137); assay: biochemical; format: biochemical
# Experimental: The phosphorylation of HSP-peptide ([sequence]) by MAPKAPK2 was measured using an anion exchange resin capture assay method. […] The reaction was terminated and [γ^33P]ATP was removed from solution by the addition of 150 μl of AG 1×8 ion exchange resin in 900 mM sodium formate pH 3.0. A 50 μl aliquot of head volume was removed from the quenched reaction mixture and added to a 96-well plate, 150 μl of Microscint-40 (Packard) was added and the amount of phosphorylated-peptide was determined.
# Compounds are evaluated as potential inhibitors of the MK2 kinase by measuring their effects on MK2 phosphorylation of the peptide substrate. Compounds may be screened initially at two concentrations prior to determination of IC50 values. Screening results are expressed as percent inhibition at the concentrations of compound tested. For IC50 value determinations, compounds are tested at six concentrations in ten-fold serial dilutions with each concentration tested in triplicate. Results are expressed as IC50 values in micromolar. The assay is performed at a final concentration of 2% DMSO.
# TNFα release, U937 cells = assay: U937 Cell TNFα Release Assay (LPS-stimulated, TNFα ELISA); format: cell-based; details: Homo sapiens, read-out: TNFα release assay IC50
# Experimental: U937 Cell TNFα Release Assay
# The human monocyte-like cell line, U937 (ATCC #CRL-1593.2), is cultured in RPMI1640 media with 10% heat-inactivated fetal calf serum (GIBCO), glutamine and pen/strep at 37° C. and 5% CO2. Differentiation of U937 to monocytic/macrophage-like cells is induced by the addition of phorbol12-myristate 13-acetate (Sigma) at final concentration of 20 ng/ml to a culture of U937 cells at ˜0.5 million cells/ml and incubated for 24 hrs. The cells are centrifuged, washed with PBS and resuspended in fresh media without PMA and incubated for 24 hrs. Cells adherent to the culture flask are harvested by scraping, centrifugation, and resuspended in fresh media to 2 million cells/ml, and 0.2 ml is aliquoted to each of 96 wells in flat-bottom plate. Cells are then incubated for an additional 24 hrs to allow for recovery. […]
# ELISA plates (NUNC-Immuno™ Plate Maxisorb™ Surface) were coated with purified mouse monoclonal IgG1 anti-human TNFα antibody (R&D Systems #MAB610; 1.25 ug/ml in sodium bicarbonate pH 8.0, 0.1 ml/well) and incubated at 4° C. […] Enzymatic conversion of ABTS to colored product was measured after 5-30 minutes using a SpectroMax 340 spectrophotometer (Molecular Devices) at 405 nm. TNF levels were quantitated from a recombinant human TNFα (R&D Systems #210-TA-010) standard curve using a quadratic parameter fit generated by SoftMaxPRO software. […]
# [1] = system: LPS-induced TNFα production; assay: Rat LPS assay: Lipopolysaccharide (LPS)-Induced TNFα Production; format: in vivo; details: 20 mpk (IP); inhibition of serum TNFα vs vehicle
# [2] = HSP-peptide substrate, 0.03 mM ATP, 2% DMSO, read-out: MK-2 Avg. IC50
# Sequence of MAPKAPK2 (P49137 whole entry, species assumed): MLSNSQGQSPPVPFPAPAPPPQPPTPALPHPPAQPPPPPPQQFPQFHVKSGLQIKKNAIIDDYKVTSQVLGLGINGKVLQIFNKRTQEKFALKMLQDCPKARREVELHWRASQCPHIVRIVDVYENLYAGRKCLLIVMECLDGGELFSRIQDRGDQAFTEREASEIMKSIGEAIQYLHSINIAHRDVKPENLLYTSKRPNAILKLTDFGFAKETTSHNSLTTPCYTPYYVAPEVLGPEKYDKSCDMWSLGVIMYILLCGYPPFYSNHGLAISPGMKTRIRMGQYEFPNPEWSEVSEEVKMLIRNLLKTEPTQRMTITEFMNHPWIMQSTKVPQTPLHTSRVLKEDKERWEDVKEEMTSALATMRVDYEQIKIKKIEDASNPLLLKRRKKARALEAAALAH
SMILES,IC50 (MAPKAPK2; [2]),also measured
"Cc1ccc2c(c1)Oc1nc(N)c(C#N)c(N)c1C2 [No. 42, trifluoroacetate]",≥ 200 µM,
COc1cc2c(cc1OC)Oc1nc(N)c(C#N)c(NCCN3C(=O)c4ccccc4C3=O)c1C2 [No. 94],≥ 200 µM,
"COc1cc(OC)c2c(c1)Oc1nc(N)c(C#N)c(N)c1C2 [No. 62, trifluoroacetate]",≥ 200 µM,
"N#Cc1c(N)nc2c(c1N)Cc1cc(OC(F)(F)F)ccc1O2 [No. 70, trifluoroacetate]",≥ 200 µM,
"N#Cc1c(N)nc2c(c1N)Cc1cccc(C(=O)O)c1O2 [No. 81, trifluoroacetate]",,IC50 (MAPKAPK2): ≥ 200 µM
"N#Cc1c(N)nc2c(c1N)Cc1ccc(OCCN3CCOCC3)cc1O2 [No. 28, trifluoroacetate]",,IC50 (MAPKAPK2): 0.91 µM
N#Cc1c(N)nc2c(c1N)Cc1cccc(OCc3ccncc3)c1O2 [No. 83],≥ 200 µM,
"N#Cc1c(N)nc2c(c1N)Cc1ccc(OCCN)cc1O2 [No. 19, 2,4-diamino-8-(2-aminoethoxy)-5H-chromeno[2,3-b]pyridine-3-carbonitrile hydrochloride]",,"IC50 (TNFα release, U937 cells; U-937, 4 h): 6.9 µM; Rat LPS Assay inhibition [1]: 88%"
"COc1cccc2c1Cc1c(nc(N)c(C#N)c1N)O2 [No. 70, trifluoroacetate]",≥ 200 µM,
"CCNc1nc2c(c(NCC)c1C#N)Cc1cc(OC)c(OC)cc1O2 [No. 103, trifluoroacetate]",≥ 200 µM,
"N#Cc1c(N)nc2c(c1N)Cc1ccc(OCCN3CCCC3)cc1O2.O=C(O)C(F)(F)F [No. 25, 2,4-diamino-8-(2-pyrrolidin-1-ylethoxy)-5H-chromeno[2,3-b]pyridine-3-carbonitrile]",,"IC50 (TNFα release, U937 cells; U-937, differentiated U937 cells, LPS 100 ng/ml, 4 hrs): 2.9 µM; Rat LPS Assay inhibition [1]: 60%"

# Source: patent US20040127511A1 (Pharmacia Corporation, priority 2002, published 2004)
